In patent US5124158A, “Transdermal antisecretory agents for gastrointestinal disease” (The Upjohn Company, priority 1990, dated 1992):

What was measured:
(H^+ -K^+) ATPase [1] = experiment: Transdermal application to backs of rats, (H+-K+) ATPase activity in fundic gastric mucosal microsomes (K+-dependent ATP-hydrolysis); assay type: in vivo, rat
Procedure: (§1) The animals were allowed to rest for varying amounts of time and then the inhibition of (H^+ -K^+) ATPase, the enzyme responsible for gastric acid secretion, was measured.
(§2) For each of the following examples the drug dilutions were prepared in DMSO to a final concentration of 150 mg/ml. The drug was made fresh prior to each application.
(§3) The inhibition of (H^+ -K^+) ATPase activity was determined as described by Im, W. B.; Blalkeman, D. P., "Inhibitiion of Gastric pH^+ -K^+) ATPase by Unsaturated Long Chain Fatty Acids" Biochem. et Biophy. […] For the rat models, fundic gastric mucosal microsomes were prepared and (H^+ -K^+) ATPase activity in the microsomes was estimated by measuring K^+ -dependent ATP-hydrolysis.
(§4) Male, Upjohn Sprague Dawley rats were anesthetized with sodium pentobarbital and their dorsal hair removed with the depilatory NAIR. Care was taken to prevent abrasions which might result from hair removal. The animals were returned to their cages and allowed to recover for twenty-four hours. The rats were then fasted overnight in metal restraining tubes without water prior to treatment. 2-(4-ethylthio-3-methylpyridin-2-yl methyl)sulfinyl-benzimidazole at 0 or 100 mg/kg was applied to the backs of the rats and spread with an Eppendorf pipette tip. The same volume of DMSO alone was applied after 2 hrs to all animals. The rats were evaluated 5 or 30 hours after the initial dose for determination of (H^+ -K^+) ATPase activity.
as §4, with “Omeprazole” for “2-(4-ethylthio-3-methylpyridin-2-yl methyl)sulfinyl-benzimidazole”
(§5) Additional volumes (100 μl) of DMSO were spread over the treatment area one time (after two hours) or four times (after one, two, three and four hours). The animals were evaluated 5 hours after the initial dose for determination of (H^+ -K^+) ATPase activity.
(§6) Additional volumes (100 μl) of DMSO were spread over the treatment area after 2, 5, and 7 hours. The animals were evaluated 24 hours after the initial dose for determination of (H^+ -K^+) ATPase activity.

[2] = as above; assay type: in vivo, rat; settings: rat, in vivo, topical or ocular, transdermal, lowest dose 25 mg/kg, read-out: fraction of the lowest dose absorbed
Procedure: as §1, §2, §3, §4
as §4, with “Omeprazole” for “2-(4-ethylthio-3-methylpyridin-2-yl methyl)sulfinyl-benzimidazole”
as §5, §6

(H^+ -K^+) ATPase [3] = experiment: Transdermal application to rabbit ears, (H+-K+) ATPase activity in fundic mucosa; assay type: in vivo; settings: rabbits, transdermal 100 mg/kg divided to both ears, DMSO after 1, 3, 5, 7, 24 and 25 hrs, evaluated 30 hrs after dose
Procedure: as §1, §2
The inhibition of (H^+ -K^+) ATPase activity was determined as described by Im, W. B.; Blalkeman, D. P., "Inhibitiion of Gastric pH^+ -K^+) ATPase by Unsaturated Long Chain Fatty Acids" Biochem. et Biophy. Acta 692:355-60 (1982). For the rat models, fundic gastric mucosal microsomes were prepared and (H^+ -K^+) ATPase activity in the microsomes was estimated by measuring K^+ -dependent ATP-hydrolysis.
For the rabbit models, mucosa from the fundic region was removed by blunt dissection and minced with scissors. 2.5 g of the minced tissue was placed in 25 ml of buffer containing 250 mM sucrose, 2 mM MgCl2, 1 mM EGTA, and 2 mM Hepes/Tris, pH 7.4. The tissues were then prepared as described for the rat gastric mucosa.
Male, New Zealand White rabbits were fasted overnight without water in their cages prior to treatment. The same compound as used in Example 1 was applied at 0 or 100 mg/kg in divided doses (1/2 to each ear) to naive rabbit ears. […] The rabbits were evaluated 30 hrs after the initial dose for determination of (H^+ -K^+) ATPase activity.

[4] = Signs of irritation after transdermal application; assay type: in vivo; settings: rabbit ears, transdermal 100 mg/kg in DMSO
Procedure: Male, New Zealand White rabbits were fasted overnight without water in their cages prior to treatment. The same compound as used in Example 1 was applied at 0 or 100 mg/kg in divided doses (1/2 to each ear) to naive rabbit ears. The rabbits received an additional application of DMSO to the treatment area after 1, 3, 5, 7, 24 and 25 hrs. The rabbits were evaluated 30 hrs after the initial dose for determination of (H^+ -K^+) ATPase activity.

| SMILES | reduction of (H^+ -K^+) ATPase activity from control ((H^+ -K^+) ATPase [1]; transdermal 100 mg/kg in DMSO, DMSO alone after 2 hrs, evaluated 5 or 30 hours after dose (activity did not change with time)) | additional reduction of (H^+ -K^+) ATPase activity by additional applications of DMSO ((H^+ -K^+) ATPase [1]; transdermal 100 mg/kg, four wipes of DMSO (1, 2, 3, 4 hours) versus one wipe, 5 hours) | reduction of (H^+ -K^+) ATPase activity ((H^+ -K^+) ATPase [1]; transdermal 100 mg/kg, four wipes of DMSO (1, 2, 3, 4 hours), 5 hours) | reduction of (H^+ -K^+) ATPase activity from control ((H^+ -K^+) ATPase [1]; transdermal 100 mg/kg, one DMSO wipe after two hours, evaluated 5 hours after dose (Example 3)) | reduction of (H^+ -K^+) ATPase activity ((H^+ -K^+) ATPase [1]; transdermal 200 mg/kg, one wipe of DMSO after two hours, 5 hours) | reduction in (H^+ -K^+) ATPase from the control ((H^+ -K^+) ATPase [1]; transdermal 25, 50 or 100 mg/kg (maximum even at the lower dose), DMSO after 2, 5 and 7 hours, evaluated 24 hours after dose) | Fa [2] | reduction of (H^+ -K^+) ATPase activity from control ((H^+ -K^+) ATPase [3]) | signs of irritation [4] | reduction of (H^+ -K^+) ATPase activity as compared to the control ((H^+ -K^+) ATPase [1]; transdermal 100 mg/kg in DMSO, DMSO alone after 2 hrs, after 5 hours) | reduction of (H^+ -K^+) ATPase activity as compared to the control ((H^+ -K^+) ATPase [1]; transdermal 100 mg/kg in DMSO, DMSO alone after 2 hrs, after 30 hours) |
| --- | --- | --- | --- | --- | --- | --- | --- | --- | --- | --- | --- |
| CCSc1ccnc(C[S+]([O-])c2nc3ccccc3[nH]2)c1C (centres unmarked) [2-(4-ethylthio-3-methylpyridin-2-ylmethyl)sulfinyl-benzimidazole] | 60-65% | 16% | 81% | 65% | 72% | ~50% | ≥ 4% | 87% | no signs of irritation were observed | – | – |
| COc1ccc2[nH]c([S+]([O-])Cc3ncc(C)c(OC)c3C)nc2c1 (centres unmarked) [omeprazole, reference compound] | – | – | – | – | – | – | – | – | – | 35% | 27% |
